# Source: patent publication US20020002140A1, “Novel bisphosphonates and uses thereof” (priority 2000, published 2002)
# Read-outs that look alike come from different tables or passages of the source.
# Tests used:
# [1] = given orally; cited from earlier work
# osteoclasts = assay: Assay of bone resorption in vitro (bone slice assay); format: cell-based; settings: chick embryo bone cells on dentine discs; FIG. 1 (MH2 vs MH3), FIG. 2 (alendronate vs glucoside)
# Method: Resorption lacunae where identified and quantitated using an Olympus BH2 microscope fitted for incident light microscopy. The plan area of resorption was determined by point counting using a ×10 objective and a drawing tube. The total area of each disc was analyzed.
# [2] = tested on: bone cell suspension, including osteoclasts and other cell types; settings: FIG. 3, concentrations up to 10^−4M, Sodium Salt
# Description: Sterile, devitalized discs of dentine (diameter 4 mm) where prepared and placed in a 96 well tissue culture plate, one disc per well, and pre-wet overnight in α-MEM tissue culture medium supplemented with 10% fetal calf serum. The femora and tibiae where dissected from 18 day chick embryos and transferred into α-MEM culture medium supplemented with 10% fetal calf serum.
# The bones were finely minced using a sharp scalpel and the resulting suspension was triturated using a sterile pipette and transferred to a sterile plastic tube. The suspension was allowed to stand for one minute so that fragments of bone and other debris settled and the upper layer containing a bone cell suspension, including osteoclasts and other cell types, was harvested.
# Aliquots of this bone cell suspension were added to the culture wells containing the devitalized dentine discs. Cells where allowed to settle for between 2 and 24 hours. The medium was then removed and new medium containing the test reagents was added. Cells where cultured for periods of time up to 72 hours after which time the dentine discs were washed in PBS at 37° C., fixed in 4% glutaraldehyde in 0.2 M sodium cacodylate, and stained for 5 minutes in 1% (w/v) toluidine blue in 0.5% disodium tetraborate. Excess stain was removed by washing in 70% ethanol for one minute. The dentine discs were then washed in tap water and air-dried.
compound,measurement,setting,value
"NCCCC(O)(P(=O)(O)O)P(=O)(O)O [FOSAMAX, alendronate sodium]","drug absorbed from the gut, on average",[1],about 0.7%
"CC(Nc1ccc(O)cc1)(P(=O)(O)O)P(=O)(O)O [MH2, 1-((4-hydroxyphenyl)amino)ethylidene-1,1-diphosphonic acid]",effect on bone resorption (plan area of resorption lacunae on dentine discs),osteoclasts,substantially less effect than MH3
"O=P([O-])(O)C(O)(CCCNC1O[C@H](CO)[C@@H](O)[C@H](O)[C@H]1O)P(=O)(O)O.[Na+] (stereo partly shown) [glucoside, N-glucopyranosyl Alendronate Sodium Salt]",toxicity (cell number),[2],substantially no toxicity
same,toxicity (cell number),[2]; listed as alendronate glycoside,substantially less toxicity than unglycosylated alendronate
